# Where two headings read alike, the source gives them in different places.
# Molecular target: CDK7/CycH/MNAT1 (Homo sapiens (Human), UniProt P50613)
# Assay: Biochemical assay for CDK7 (TR-FRET kinase assay)
# Settings: for inhibition at 10 µM: read-out: % inhibition @ 10 μM
# How it was run: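 CDK7/CycH/MNAT1 (5 nM) was preincubated with compound for 60 min at room temperature, then reacted for 60 min with 100 nM ULight-MBP and 1 mM ATP in 1% DMSO. Irreversibility was probed with 20, 60 and 180 min preincubations.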
# [1] = 10 μM compound, 60 min pre-incubation, 1 mM ATP
# [2] = 60 min pre-incubation, 1 mM ATP, read-out: IC50
# CDK7/CycH/MNAT1, sequence (P50613 whole entry): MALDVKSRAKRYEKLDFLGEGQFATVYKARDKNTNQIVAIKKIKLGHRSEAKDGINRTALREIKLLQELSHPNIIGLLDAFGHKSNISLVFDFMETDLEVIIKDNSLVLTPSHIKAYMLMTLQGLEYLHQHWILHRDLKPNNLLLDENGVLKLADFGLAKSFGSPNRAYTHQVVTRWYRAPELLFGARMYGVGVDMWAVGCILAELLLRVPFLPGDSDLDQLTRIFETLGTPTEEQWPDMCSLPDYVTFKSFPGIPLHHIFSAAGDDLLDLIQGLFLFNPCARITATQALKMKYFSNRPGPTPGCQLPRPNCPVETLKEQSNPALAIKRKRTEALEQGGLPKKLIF
# CDK7/CycH/MNAT1, sequence (P51946 whole entry partner): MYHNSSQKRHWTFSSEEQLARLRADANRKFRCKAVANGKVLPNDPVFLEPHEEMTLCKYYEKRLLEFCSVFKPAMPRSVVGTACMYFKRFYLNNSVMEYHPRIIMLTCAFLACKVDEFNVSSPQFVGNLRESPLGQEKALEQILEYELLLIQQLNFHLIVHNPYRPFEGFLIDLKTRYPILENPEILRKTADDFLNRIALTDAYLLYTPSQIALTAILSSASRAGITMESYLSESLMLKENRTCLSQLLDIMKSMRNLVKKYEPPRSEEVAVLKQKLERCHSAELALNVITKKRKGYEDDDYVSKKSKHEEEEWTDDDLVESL
# CDK7/CycH/MNAT1, sequence (P51948 whole entry partner): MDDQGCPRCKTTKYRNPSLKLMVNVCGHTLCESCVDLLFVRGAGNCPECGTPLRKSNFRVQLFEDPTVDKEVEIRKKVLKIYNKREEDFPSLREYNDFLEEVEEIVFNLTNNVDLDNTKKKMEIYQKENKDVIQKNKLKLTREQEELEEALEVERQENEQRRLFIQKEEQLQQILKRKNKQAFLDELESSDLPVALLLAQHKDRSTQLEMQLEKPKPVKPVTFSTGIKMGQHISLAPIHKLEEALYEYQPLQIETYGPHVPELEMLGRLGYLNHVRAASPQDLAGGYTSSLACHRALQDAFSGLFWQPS
Structure (SMILES),inhibition at 10 µM [1],IC50 [2],% inhibition @ 10 μM [1],"IC50 (IC50, 60 min pre-incubation, 1 mM ATP)",inhibition at 10 µM
"C#CC(=O)N1CCC1C(=O)Nc1cccc(CNc2nc(NC3CCOCC3)nc3c(C(C)C)cnn23)c1 (centres unmarked) [Compound 66, N-(3-(((8-isopropyl-2-((tetrahydro-2H-pyran-4-yl)amino)pyrazolo[1,5-a][1,3,5]triazin-4-yl)amino)methyl)phenyl)-1-propioloylazetidine-2-carboxamide]",98%,< 300 nM,–,–,–
"C=C(C)C(=O)N1CCC1C(=O)Nc1cccc(CNc2nc(NC3CCOCC3)nc3c(C(C)C)cnn23)c1 (centres unmarked) [Compound 67, N-(3-(((8-isopropyl-2-((tetrahydro-2H-pyran-4-yl)amino)pyrazolo[1,5-a][1,3,5]triazin-4-yl)amino)methyl)phenyl)-1-methacryloylazetidine-2-carboxamide]",91%,300 to 1000 nM,–,–,–
"COC/C=C/C(=O)N1CCC(C(=O)Nc2cccc(CNc3nc(NC4CCOCC4)nc4c(C(C)C)cnn34)c2)C1 (centres unmarked) [Compound 68, (E)-N-(3-(((8-isopropyl-2-((tetrahydro-2H-pyran-4-yl)amino)pyrazolo[1,5-a][1,3,5]triazin-4-yl)amino)methyl)phenyl)-1-(4-methoxybut-2-enoyl)pyrrolidine-3-carboxamide]",92%,300 to 1000 nM,–,–,–
"CC(C)c1cnn2c(NCc3cc(NC(=O)C4CCN(C(=O)/C=C/CN(C)C)C4)ccc3F)nc(NC3CCOCC3)nc12 (centres unmarked) [Compound 70, (E)-1-(4-(dimethylamino)but-2-enoyl)-N-(4-fluoro-3-(((8-isopropyl-2-((tetrahydro-2H-pyran-4-yl)amino)pyrazolo[1,5-a][1,3,5]triazin-4-yl)amino)methyl)phenyl)pyrrolidine-3-carboxamide]",85%,300 to 1000 nM,–,–,–
"CC(C)c1cnn2c(NCc3cc(F)cc(NC(=O)C4CCN(C(=O)/C=C/CN(C)C)C4)c3)nc(NC3CCOCC3)nc12 (centres unmarked) [Compound 71, (E)-1-(4-(dimethylamino)but-2-enoyl)-N-(3-fluoro-5-(((8-isopropyl-2-((tetrahydro-2H-pyran-4-yl)amino)pyrazolo[1,5-a][1,3,5]triazin-4-yl)amino)methyl)phenyl)pyrrolidine-3-carboxamide]",92%,300 to 1000 nM,–,–,–
"CC(C)c1cnn2c(NC(C)c3cccc(NC(=O)C4CCCN(C(=O)/C=C/CN(C)C)C4)c3)nc(NC3CCOCC3)nc12 (centres unmarked) [Compound 72, (E)-1-(4-(dimethylamino)but-2-enoyl)-N-(3-(1-((8-isopropyl-2-((tetrahydro-2H-pyran-4-yl)amino)pyrazolo[1,5-a][1,3,5]triazin-4-yl)amino)ethyl)phenyl)piperidine-3-carboxamide]",84%,300 to 1000 nM,–,–,–
"CC(C)c1cnn2c(NCc3cccc(NC(=O)C4COCCN4C(=O)/C=C/CN(C)C)c3)nc(NC3CCOCC3)nc12 (centres unmarked) [Compound 73, (E)-4-(4-(dimethylamino)but-2-enoyl)-N-(3-(((8-isopropyl-2-((tetrahydro-2H-pyran-4-yl)amino)pyrazolo[1,5-a][1,3,5]triazin-4-yl)amino)methyl)phenyl)morpholine-3-carboxamide]",101%,< 300 nM,–,–,–
"CC(C)c1cnn2c(NCc3cccc(NC(=O)C4CCCCN4C(=O)/C=C/CN(C)C)c3)nc(NC3CCOCC3)nc12 (centres unmarked) [Compound 74, (E)-1-(4-(dimethylamino)but-2-enoyl)-N-(3-(((8-isopropyl-2-((tetrahydro-2H-pyran-4-yl)amino)pyrazolo[1,5-a][1,3,5]triazin-4-yl)amino)methyl)phenyl)piperidine-2-carboxamide]",99%,< 300 nM,–,–,–
"CC(C)c1cnn2c(NCc3cccc(OC(=O)N4CCN(C(=O)/C=C/CN(C)C)CC4)c3)nc(NC3CCOCC3)nc12 [Compound 75, 3-(((8-isopropyl-2-((tetrahydro-2H-pyran-4-yl)amino)pyrazolo[1,5-a][1,3,5]triazin-4-yl)amino)methyl)phenyl(E)-4-(4-(dimethylamino)but-2-enoyl)piperazine-1-carboxylate]",–,–,–,< 300 nM,97%
"CC(C)c1cnn2c(NCc3cccc(NC(=O)C4CCN4C/C=C/C(=O)N(C)C)c3)nc(NC3CCOCC3)nc12 (centres unmarked) [Compound 76, (E)-1-(4-(dimethylamino)-4-oxobut-2-en-1-yl)-N-(3-(((8-isopropyl-2-((tetrahydro-2H-pyran-4-yl)amino)pyrazolo[1,5-a][1,3,5]triazin-4-yl)amino)methyl)phenyl)azetidine-2-carboxamide]",81%,> 1000 nM,–,–,–
"C=CC(=O)NCC(=O)Nc1cccc(CNc2nc(NC3CCOCC3)nc3c(C(C)C)cnn23)c1 [Compound 79, N-(2-((3-(((8-isopropyl-2-((tetrahydro-2H-pyran-4-yl)amino)pyrazolo[1,5-a][1,3,5]triazin-4-yl)amino)methyl)phenyl)amino)-2-oxoethyl)acrylamide]",96%,< 300 nM,–,–,–
"C=CC(=O)N1CCC(C(=O)Nc2cccc(CNc3nc(OCC(C)C)nc4c(C(C)C)cnn34)c2)C1 (centres unmarked) [Compound 102, 1-acryloyl-N-(3-(((2-isobutoxy-8-isopropylpyrazolo[1,5-a][1,3,5]triazin-4-yl)amino)methyl)phenyl)pyrrolidine-3-carboxamide]",82%,300 to 1000 nM,–,–,–

# The next lines start with results.
inhibition at 10 µM [1],IC50 [2],% inhibition @ 10 μM [1],Structure (SMILES),"IC50 (IC50, 60 min pre-incubation, 1 mM ATP)",inhibition at 10 µM
99%,< 300 nM,–,"CC(C)c1cnn2c(NCc3cccc(NC(=O)C4CCCCN4C(=O)/C=C/CN4CCCC4)c3)nc(NC3CCOCC3)nc12 (centres unmarked) [Compound 77, (E)-N-(3-(((8-isopropyl-2-((tetrahydro-2H-pyran-4-yl)amino)pyrazolo[1,5-a][1,3,5]triazin-4-yl)amino)methyl)phenyl)-1-(4-(pyrrolidin-1-yl)but-2-enoyl)piperidine-2-carboxamide]",–,–
94%,300 to 1000 nM,–,"C=CC(=O)NC(C)C(=O)Nc1cccc(CNc2nc(NC3CCOCC3)nc3c(C(C)C)cnn23)c1 (centres unmarked) [Compound 80, N-(1-((3-(((8-isopropyl-2-((tetrahydro-2H-pyran-4-yl)amino)pyrazolo[1,5-a][1,3,5]triazin-4-yl)amino)methyl)phenyl)amino)-1-oxopropan-2-yl)acrylamide]",–,–
98%,< 300 nM,–,"C=CC(=O)N(C)CC(=O)Nc1cccc(CNc2nc(NC3CCOCC3)nc3c(C(C)C)cnn23)c1 [Compound 81, N-(2-((3-(((8-isopropyl-2-((tetrahydro-2H-pyran-4-yl)amino)pyrazolo[1,5-a][1,3,5]triazin-4-yl)amino)methyl)phenyl)amino)-2-oxoethyl)-N-methylacrylamide]",–,–
93%,300 to 1000 nM,–,"C=CC(=O)NC(C)(C)C(=O)Nc1cccc(CNc2nc(NC3CCOCC3)nc3c(C(C)C)cnn23)c1 [Compound 82, N-(1-((3-(((8-isopropyl-2-((tetrahydro-2H-pyran-4-yl)amino)pyrazolo[1,5-a][1,3,5]triazin-4-yl)amino)methyl)phenyl)amino)-2-methyl-1-oxopropan-2-yl)acrylamide]",–,–
97%,< 300 nM,–,"C=CC(=O)N(C)C1(C(=O)Nc2cccc(CNc3nc(NC4CCOCC4)nc4c(C(C)C)cnn34)c2)CC1 [Compound 84, N-(3-(((8-isopropyl-2-((tetrahydro-2H-pyran-4-yl)amino)pyrazolo[1,5-a][1,3,5]triazin-4-yl)amino)methyl)phenyl)-1-(N-methylacrylamido)cyclopropane-1-carboxamide]",–,–
99%,< 300 nM,–,"C=CC(=O)N1CCC1C(=O)Nc1cccc(Nc2nc(NC3CCOCC3)nc3c(C(C)C)cnn23)c1 (centres unmarked) [Compound 86, 1-acryloyl-N-(3-((8-isopropyl-2-((tetrahydro-2H-pyran-4-yl)amino)pyrazolo[1,5-a][1,3,5]triazin-4-yl)amino)phenyl)azetidine-2-carboxamide]",–,–
–,–,32%,"C=CC(=O)N[C@H]1CC[C@@H](C(=O)Nc2cccc(Nc3nc(NC4CCOCC4)nc4c(C(C)C)cnn34)c2)CC1 [Compound 87, (1,4-cis)-4-acrylamido-N-(3-((8-isopropyl-2-((tetrahydro-2H-pyran-4-yl)amino)pyrazolo[1,5-a][1,3,5]triazin-4-yl)amino)phenyl)cyclohexane-1-carboxamide]",–,–
38%,–,–,"C=CC(=O)N1CCCC(C(=O)Nc2cccc(CNc3nc(OC4CCN(C)CC4)nc4ccnn34)c2)C1 (centres unmarked) [Compound 89, 1-acryloyl-N-(3-(((2-((1-methylpiperidin-4-yl)oxy)pyrazolo[1,5-a][1,3,5]triazin-4-yl)amino)methyl)phenyl)piperidine-3-carboxamide]",–,–
82%,300 to 1000 nM,–,"C=CC(=O)N[C@H]1CC[C@@H](C(=O)Nc2cccc(CNc3nc(OC4CCOC4)nc4c(C(C)C)cnn34)c2)CC1 (stereo partly drawn) [Compound 100, (1,4-cis)-4-acrylamido-N-(3-(((8-isopropyl-2-((tetrahydrofuran-3-yl)oxy)pyrazolo[1,5-a][1,3,5]triazin-4-yl)amino)methyl)phenyl)cyclohexane-1-carboxamide]",–,–
80%,> 1000 nM,–,"C=CC(=O)N1CCC(C(=O)Nc2cccc(CNc3nc(OCCOC)nc4c(C(C)C)cnn34)c2)C1 (centres unmarked) [Compound 103, 1-acryloyl-N-(3-(((8-isopropyl-2-(2-methoxyethoxy)pyrazolo[1,5-a][1,3,5]triazin-4-yl)amino)methyl)phenyl)pyrrolidine-3-carboxamide]",–,–
78%,> 1000 nM,–,"C=CC(=O)N1CCC(C(=O)Nc2cccc(CNc3nc(OCCOCCOC)nc4c(C(C)C)cnn34)c2)C1 (centres unmarked) [Compound 104, 1-acryloyl-N-(3-(((8-isopropyl-2-(2-(2-methoxyethoxy)ethoxy)pyrazolo[1,5-a][1,3,5]triazin-4-yl)amino)methyl)phenyl)pyrrolidine-3-carboxamide]",–,–

# From patent publication US11186576B2, “Pyrazolo[1,5-A][1,3,5]triazine and pyrazolo[1,5-A]pyrimidine derivatives as CDK inhibitors” (Aurigene Discovery Technologies Limited, priority 2015, dated 2021)
